# Measurements reported in patent publication US10710978B2, “STK4 inhibitors for treatment of hematologic malignancies” (Dana-Farber Cancer Institute, Inc., priority 2015, dated 2020).
# pIC50: −log10 of the molar value. Where two headings read alike, the source gives them in different places.
# Legend:
# ATM = ATM (Homo sapiens (Human), UniProt Q13315); experiment: KiNativ assay; assay type: binding; conditions: H929 live cell
# Procedure, shortened: (§1)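 Compounds were tested in duplicate at 10 μM in live H929 cells, and kinase engagement was profiled by KiNativ with mass spectrometry read-out to derive IC50.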
# PCTAIRE1 = PCTAIRE1 (Homo sapiens (Human), UniProt Q00536); experiment: KiNativ assay; assay type: binding; conditions: H929 live cell
# Procedure, shortened: as §1
# LATS2 = LATS2 (Homo sapiens (Human), UniProt Q9NRM7); experiment: KiNativ assay; assay type: binding; conditions: H929 live cell
# Procedure, shortened: as §1
# CaMK2d = CaMK2d (Homo sapiens (Human), UniProt Q13557); experiment: KiNativ assay; assay type: binding; conditions: H929 live cell
# Procedure: (§2) Biochemical IC50s of the compounds of the present disclosure against various kinases were measured in a KiNativ assay. Compounds were screened in duplicate at 10 μM in H929 live cell. IC50 was measured via Mass spectroscopy (MS).
# CDK6 = CDK6 (Homo sapiens (Human), UniProt Q00534); experiment: KiNativ assay; assay type: binding; conditions: H929 live cell
# Procedure: as §2
# RSK1 domain1 = RSK1 domain1 (Homo sapiens (Human), UniProt Q15418); experiment: KiNativ assay; assay type: binding; conditions: H929 live cell
# Procedure: as §2
# NEK4 = NEK4 (Homo sapiens (Human), UniProt P51957); experiment: KiNativ assay; assay type: binding; conditions: H929 live cell
# Procedure: as §2
# ULK3 = ULK3 (Homo sapiens (Human), UniProt Q6PHR2); experiment: KiNativ assay; assay type: binding; conditions: H929 live cell
# Procedure, shortened: as §1
# LZK = LZK (Homo sapiens (Human), UniProt O43283); experiment: KiNativ assay; assay type: binding; conditions: H929 live cell
# Procedure, shortened: as §1
# CDC2 = CDC2 (Homo sapiens (Human), UniProt P06493); experiment: KiNativ assay; assay type: binding; conditions: H929 live cell
# Procedure: as §2
# JNK1, JNK2, JNK3 = experiment: KiNativ assay; assay type: binding; conditions: H929 live cell; for % inhibition: 10 μM, range class
# Procedure: as §2
# PHKg2 = PHKg2 (Homo sapiens (Human), UniProt P15735); experiment: KiNativ assay; assay type: binding; conditions: H929 live cell
# Procedure: as §2
# KHS1 = KHS1 (Homo sapiens (Human), UniProt Q9Y4K4); experiment: KiNativ assay; assay type: binding; conditions: H929 live cell
# Procedure: as §2
# CDK11, CDK8 = experiment: KiNativ assay; assay type: binding; conditions: H929 live cell; for % inhibition: 10 μM, range class
# Procedure: as §2
# MAST1, MAST2 = experiment: KiNativ assay; assay type: binding; conditions: H929 live cell; for % inhibition: 10 μM, range class
# Procedure, shortened: as §1
# PIP4K2A = PIP4K2A (Homo sapiens (Human), UniProt P48426); experiment: KiNativ assay; assay type: binding; conditions: H929 live cell
# Procedure: as §2
# MAP3K3 = MAP3K3 (Homo sapiens (Human), UniProt Q99759); experiment: KiNativ assay; assay type: binding; conditions: H929 live cell
# Procedure, shortened: as §1
# IKKb = IKKb (Homo sapiens (Human), UniProt O14920); experiment: KiNativ assay; assay type: binding; conditions: H929 live cell
# Procedure: as §2
# IRAK1 = IRAK1 (Homo sapiens (Human), UniProt P51617); experiment: KiNativ assay; assay type: binding; conditions: H929 live cell
# Procedure: as §2
# MARK4 = MARK4 (Homo sapiens (Human), UniProt Q96L34); experiment: KiNativ assay; assay type: binding; conditions: H929 live cell
# Procedure: as §2
# p38a = p38a (Homo sapiens (Human), UniProt Q16539); experiment: KiNativ assay; assay type: binding; conditions: H929 live cell, range class, read-out: % inhibition
# Procedure, shortened: as §1
# CLK2 = CLK2 (Homo sapiens (Human), UniProt P49760); experiment: KiNativ assay; assay type: binding; conditions: H929 live cell
# Procedure: as §2
# AGK = AGK (Homo sapiens (Human), UniProt Q53H12); experiment: KiNativ assay; assay type: binding; conditions: H929 live cell
# Procedure, shortened: as §1
# Erk2 = Erk2 (Homo sapiens (Human), UniProt P28482); experiment: KiNativ assay; assay type: binding; conditions: H929 live cell
# Procedure: as §2
# CHK2 = CHK2 (Homo sapiens (Human), UniProt O96017); experiment: KiNativ assay; assay type: binding; conditions: H929 live cell
# Procedure: as §2
# STK4 (MST1) = STK4 (MST1) (Homo sapiens (Human), UniProt Q13043); experiment: Z-lyte biochemical IC50 assay (Invitrogen); conditions: ATP concentration matched the Km
# Procedure, shortened: (§3)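 FRET-based Z-lyte kinase assays run at Invitrogen, ATP at each kinase's Km; for STK4, 6.25-160 ng enzyme with 2 μM Ser/Thr 07 peptide in HEPES pH 7.5, MgCl2, EGTA, Brij-35, 1 h reaction then development reagent. 10-point 3-fold titration from 10 μM.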
# STK24 (MST3) = STK24 (MST3) (Homo sapiens (Human), UniProt Q9Y6E0); experiment: Z-lyte biochemical IC50 assay (Invitrogen); conditions: ATP concentration matched the Km
# Procedure, shortened: as §3
# [1] = range class, read-out: % inhibition
# KHS1, sequence (Q9Y4K4 whole entry): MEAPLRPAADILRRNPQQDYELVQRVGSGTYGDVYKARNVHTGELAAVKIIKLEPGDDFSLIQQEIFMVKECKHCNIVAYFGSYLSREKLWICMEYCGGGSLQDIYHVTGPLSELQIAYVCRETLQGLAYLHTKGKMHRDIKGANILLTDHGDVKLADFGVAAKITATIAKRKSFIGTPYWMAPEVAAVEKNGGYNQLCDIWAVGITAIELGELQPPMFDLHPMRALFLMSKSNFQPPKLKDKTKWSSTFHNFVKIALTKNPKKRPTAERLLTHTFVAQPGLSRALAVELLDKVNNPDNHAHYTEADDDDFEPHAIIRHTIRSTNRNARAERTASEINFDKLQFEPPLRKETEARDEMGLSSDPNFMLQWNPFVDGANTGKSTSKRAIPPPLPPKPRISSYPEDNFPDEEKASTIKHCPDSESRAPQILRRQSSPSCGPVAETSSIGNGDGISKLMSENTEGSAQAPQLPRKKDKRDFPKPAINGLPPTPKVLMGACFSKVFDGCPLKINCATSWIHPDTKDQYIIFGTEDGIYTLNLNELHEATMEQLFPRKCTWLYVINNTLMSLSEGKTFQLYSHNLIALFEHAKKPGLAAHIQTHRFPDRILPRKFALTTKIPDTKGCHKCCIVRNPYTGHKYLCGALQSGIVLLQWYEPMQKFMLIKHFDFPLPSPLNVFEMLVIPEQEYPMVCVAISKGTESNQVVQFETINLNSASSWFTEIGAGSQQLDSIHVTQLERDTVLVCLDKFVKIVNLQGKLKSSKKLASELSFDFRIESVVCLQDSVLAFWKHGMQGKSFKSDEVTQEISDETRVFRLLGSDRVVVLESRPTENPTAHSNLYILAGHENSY
# CLK2, sequence (P49760 whole entry): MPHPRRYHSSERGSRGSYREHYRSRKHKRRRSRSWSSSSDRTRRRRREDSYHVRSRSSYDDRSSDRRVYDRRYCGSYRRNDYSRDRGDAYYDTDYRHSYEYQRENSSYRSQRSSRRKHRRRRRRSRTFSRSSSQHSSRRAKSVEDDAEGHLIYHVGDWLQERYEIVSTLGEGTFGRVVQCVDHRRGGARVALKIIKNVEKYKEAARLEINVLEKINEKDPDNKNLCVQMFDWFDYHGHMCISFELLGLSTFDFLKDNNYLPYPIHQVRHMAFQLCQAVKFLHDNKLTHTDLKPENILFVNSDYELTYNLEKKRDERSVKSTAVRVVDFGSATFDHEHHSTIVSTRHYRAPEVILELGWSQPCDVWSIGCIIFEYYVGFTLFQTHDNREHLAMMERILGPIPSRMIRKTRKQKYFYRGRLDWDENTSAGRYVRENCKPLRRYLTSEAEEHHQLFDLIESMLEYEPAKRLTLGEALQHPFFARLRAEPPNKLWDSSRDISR
# ULK3, sequence (Q6PHR2 whole entry): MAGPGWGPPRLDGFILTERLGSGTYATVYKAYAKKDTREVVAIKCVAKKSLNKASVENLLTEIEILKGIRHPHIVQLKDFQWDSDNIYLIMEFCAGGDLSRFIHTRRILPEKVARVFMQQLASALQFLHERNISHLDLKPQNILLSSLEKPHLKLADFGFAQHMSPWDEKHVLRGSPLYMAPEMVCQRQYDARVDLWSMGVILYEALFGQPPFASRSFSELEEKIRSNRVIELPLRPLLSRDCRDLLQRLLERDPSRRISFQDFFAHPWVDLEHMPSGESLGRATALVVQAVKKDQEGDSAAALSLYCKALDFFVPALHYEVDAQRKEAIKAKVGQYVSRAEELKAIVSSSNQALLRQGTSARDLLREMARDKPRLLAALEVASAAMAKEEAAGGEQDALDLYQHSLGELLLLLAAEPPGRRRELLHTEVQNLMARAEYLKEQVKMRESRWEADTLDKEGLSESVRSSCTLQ
# CDC2, sequence (P06493 whole entry): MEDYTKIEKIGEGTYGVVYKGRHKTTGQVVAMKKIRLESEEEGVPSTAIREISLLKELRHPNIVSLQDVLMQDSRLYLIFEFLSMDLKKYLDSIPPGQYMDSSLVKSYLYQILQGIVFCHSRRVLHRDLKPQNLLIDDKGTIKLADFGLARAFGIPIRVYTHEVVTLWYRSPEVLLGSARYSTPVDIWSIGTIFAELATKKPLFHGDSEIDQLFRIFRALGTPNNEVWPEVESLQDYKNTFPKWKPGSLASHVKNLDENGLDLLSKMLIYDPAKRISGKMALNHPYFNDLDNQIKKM
# IRAK1, sequence (P51617 whole entry): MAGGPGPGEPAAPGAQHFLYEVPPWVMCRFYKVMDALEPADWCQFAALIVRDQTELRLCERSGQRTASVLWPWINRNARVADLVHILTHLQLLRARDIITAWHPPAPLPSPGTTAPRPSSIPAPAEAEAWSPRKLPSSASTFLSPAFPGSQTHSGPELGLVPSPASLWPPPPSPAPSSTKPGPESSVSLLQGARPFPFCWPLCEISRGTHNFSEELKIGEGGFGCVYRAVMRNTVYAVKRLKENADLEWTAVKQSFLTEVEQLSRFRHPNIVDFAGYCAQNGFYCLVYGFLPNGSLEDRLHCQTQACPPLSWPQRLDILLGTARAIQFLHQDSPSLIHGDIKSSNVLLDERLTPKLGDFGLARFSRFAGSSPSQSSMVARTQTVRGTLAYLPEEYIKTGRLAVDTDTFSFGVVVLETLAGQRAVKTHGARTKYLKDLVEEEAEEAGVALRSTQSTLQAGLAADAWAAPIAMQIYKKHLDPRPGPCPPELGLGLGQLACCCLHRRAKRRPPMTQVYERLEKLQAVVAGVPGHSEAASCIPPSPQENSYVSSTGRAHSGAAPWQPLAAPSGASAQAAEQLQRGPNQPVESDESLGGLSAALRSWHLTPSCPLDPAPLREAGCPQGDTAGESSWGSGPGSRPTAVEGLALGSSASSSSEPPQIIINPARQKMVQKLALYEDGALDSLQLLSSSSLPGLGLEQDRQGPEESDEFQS
# RSK1 domain1, sequence (Q15418 whole entry, the tested form may be a part): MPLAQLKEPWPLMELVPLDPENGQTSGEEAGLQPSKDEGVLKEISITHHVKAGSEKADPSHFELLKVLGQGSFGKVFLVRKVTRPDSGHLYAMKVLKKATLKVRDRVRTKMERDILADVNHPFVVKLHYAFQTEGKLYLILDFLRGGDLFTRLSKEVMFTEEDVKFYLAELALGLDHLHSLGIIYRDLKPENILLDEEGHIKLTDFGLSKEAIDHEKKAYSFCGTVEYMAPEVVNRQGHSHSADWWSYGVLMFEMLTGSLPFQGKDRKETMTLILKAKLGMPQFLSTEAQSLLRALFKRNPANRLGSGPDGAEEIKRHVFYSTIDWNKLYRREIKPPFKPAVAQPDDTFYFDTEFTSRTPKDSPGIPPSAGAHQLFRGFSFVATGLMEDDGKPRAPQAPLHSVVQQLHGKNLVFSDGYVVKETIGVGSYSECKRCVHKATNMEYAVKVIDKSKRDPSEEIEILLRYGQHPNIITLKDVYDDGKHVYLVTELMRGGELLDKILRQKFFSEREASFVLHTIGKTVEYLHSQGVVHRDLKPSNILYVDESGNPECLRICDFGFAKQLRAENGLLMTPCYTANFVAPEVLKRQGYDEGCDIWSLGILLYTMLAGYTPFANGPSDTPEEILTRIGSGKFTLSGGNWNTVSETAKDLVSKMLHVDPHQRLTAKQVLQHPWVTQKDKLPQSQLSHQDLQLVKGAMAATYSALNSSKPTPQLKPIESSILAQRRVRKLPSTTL
# CaMK2d, sequence (Q13557 whole entry): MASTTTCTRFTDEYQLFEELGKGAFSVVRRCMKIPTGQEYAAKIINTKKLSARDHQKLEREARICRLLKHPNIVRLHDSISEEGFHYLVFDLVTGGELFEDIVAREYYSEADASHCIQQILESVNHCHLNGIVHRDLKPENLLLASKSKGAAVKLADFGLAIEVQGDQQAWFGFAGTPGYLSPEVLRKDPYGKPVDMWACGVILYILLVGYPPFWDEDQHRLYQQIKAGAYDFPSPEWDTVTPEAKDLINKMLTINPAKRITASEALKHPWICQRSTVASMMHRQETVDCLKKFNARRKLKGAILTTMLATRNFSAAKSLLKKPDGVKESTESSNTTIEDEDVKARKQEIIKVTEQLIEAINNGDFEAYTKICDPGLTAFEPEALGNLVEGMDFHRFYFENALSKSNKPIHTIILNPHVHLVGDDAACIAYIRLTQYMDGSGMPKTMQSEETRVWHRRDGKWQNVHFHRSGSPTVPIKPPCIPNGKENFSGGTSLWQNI
# IKKb, sequence (O14920 whole entry): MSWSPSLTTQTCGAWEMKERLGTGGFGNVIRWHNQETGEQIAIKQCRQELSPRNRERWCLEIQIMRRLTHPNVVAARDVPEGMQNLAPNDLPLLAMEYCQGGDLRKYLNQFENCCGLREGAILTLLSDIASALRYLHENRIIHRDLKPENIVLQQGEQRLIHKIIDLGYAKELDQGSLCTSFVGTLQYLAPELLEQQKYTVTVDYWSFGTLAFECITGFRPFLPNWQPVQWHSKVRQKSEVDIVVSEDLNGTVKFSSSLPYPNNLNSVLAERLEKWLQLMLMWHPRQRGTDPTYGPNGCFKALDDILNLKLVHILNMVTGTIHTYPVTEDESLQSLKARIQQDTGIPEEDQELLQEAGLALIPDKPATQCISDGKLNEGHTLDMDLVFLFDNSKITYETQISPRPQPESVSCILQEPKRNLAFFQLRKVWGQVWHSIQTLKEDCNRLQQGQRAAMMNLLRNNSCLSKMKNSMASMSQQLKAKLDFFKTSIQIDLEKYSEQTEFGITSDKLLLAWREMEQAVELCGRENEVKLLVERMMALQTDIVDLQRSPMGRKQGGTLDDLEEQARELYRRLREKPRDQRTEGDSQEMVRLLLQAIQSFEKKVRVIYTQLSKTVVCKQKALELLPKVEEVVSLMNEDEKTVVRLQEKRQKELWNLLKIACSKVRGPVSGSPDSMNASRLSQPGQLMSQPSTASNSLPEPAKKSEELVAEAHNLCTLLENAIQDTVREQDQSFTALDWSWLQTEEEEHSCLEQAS
smiles,measurement,setting,value
"COc1cc(NS(=O)(=O)C2CC2)ccc1-c1cnc(N)c(-c2ccc3c(c2)CCNC3=O)c1 [Compound I-50, N-(4-(6-amino-5-(1-oxo-1,2,3,4-tetrahydroisoquinolin-6-yl)pyridin-3-yl)-3-methoxyphenyl) cyclopropanesulfonamide]",inhibition at 10 µM,ATM; [1],0%
same,inhibition at 10 µM,ATM; read-out: inhibition (10 μM),34.6%
same,inhibition at 10 µM,PCTAIRE1; [1],0%
same,inhibition at 10 µM,PCTAIRE1; read-out: inhibition (10 μM),-15.6%
same,inhibition at 10 µM,LATS2; [1],0%
same,inhibition at 10 µM,LATS2; read-out: inhibition (10 μM),1.1%
same,inhibition at 10 µM,CaMK2d; [1],0%
same,inhibition at 10 µM,CaMK2d; read-out: inhibition (10 μM),15.9%
same,inhibition at 10 µM,CDK6; [1],0%
same,inhibition at 10 µM,CDK6; read-out: inhibition (10 μM),15%
same,inhibition at 10 µM,RSK1 domain1; [1],0%
same,inhibition at 10 µM,RSK1 domain1; read-out: inhibition (10 μM),-4.6%
same,inhibition at 10 µM,NEK4; [1],0%
same,inhibition at 10 µM,NEK4; read-out: inhibition (10 μM),25.1%
same,inhibition at 10 µM,ULK3; [1],0%
same,inhibition at 10 µM,ULK3; read-out: inhibition (10 μM),-14.2%
same,inhibition at 10 µM,LZK; [1],0%
same,inhibition at 10 µM,LZK; read-out: inhibition (10 μM),1.3%
same,inhibition at 10 µM,CDC2; [1],0%
same,inhibition at 10 µM,CDC2; read-out: inhibition (10 μM),13.7%
same,% inhibition,"JNK1, JNK2, JNK3",0.0%
same,inhibition (10 μM),"JNK1, JNK2, JNK3",26.8%
same,inhibition at 10 µM,PHKg2; [1],0%
same,inhibition at 10 µM,PHKg2; read-out: inhibition (10 μM),-38.6%
same,inhibition at 10 µM,KHS1; [1],75 to 90%
same,inhibition at 10 µM,KHS1; read-out: inhibition (10 μM),77.8%
same,% inhibition,"CDK11, CDK8",35-40%
same,inhibition (10 μM),"CDK11, CDK8",38.1%
same,% inhibition,"MAST1, MAST2",0.0%
same,inhibition (10 μM),"MAST1, MAST2",2.6%
same,inhibition at 10 µM,PIP4K2A; [1],0%
same,inhibition at 10 µM,PIP4K2A; read-out: inhibition (10 μM),-5.5%
same,inhibition at 10 µM,MAP3K3; [1],0%
same,inhibition at 10 µM,MAP3K3; read-out: inhibition (10 μM),-5.7%
same,inhibition at 10 µM,IKKb; [1],0%
same,inhibition at 10 µM,IKKb; read-out: inhibition (10 μM),-26.2%
same,inhibition at 10 µM,IRAK1; [1],50 to 75%
same,inhibition at 10 µM,IRAK1; read-out: inhibition (10 μM),51.2%
same,inhibition at 10 µM,MARK4; [1],0%
same,inhibition at 10 µM,MARK4; read-out: inhibition (10 μM),6.8%
same,inhibition at 10 µM,p38a,0%
same,inhibition at 10 µM,CLK2; [1],0%
same,inhibition at 10 µM,CLK2; read-out:,10.8%
same,inhibition at 10 µM,AGK; [1],0%
same,inhibition at 10 µM,AGK; read-out: inhibition (10 μM),11.5%
same,inhibition at 10 µM,Erk2; [1],0%
same,inhibition at 10 µM,Erk2; read-out: inhibition (10 μM),34.5%
same,inhibition at 10 µM,CHK2; [1],0%
same,inhibition at 10 µM,CHK2; read-out: inhibition (10 μM),19.3%
same,pIC50,STK4 (MST1),> 7.40
same,pIC50,STK24 (MST3),6.05 to 6.70
"Nc1ncc(-c2ccc(NS(=O)(=O)C3CC3)cc2F)cc1-c1ccc2c(c1)CCNC2=O [Compound I-51, N-(4-(6-amino-5-(1-oxo-1,2,3,4-tetrahydroisoquinolin-6-yl)pyridin-3-yl)-3-fluorophenyl) cyclopropanesulfonamide]",inhibition at 10 µM,ATM; [1],35 to 40%
same,inhibition at 10 µM,ATM; read-out: inhibition (10 μM),40.3%
same,inhibition at 10 µM,PCTAIRE1; [1],0%
same,inhibition at 10 µM,PCTAIRE1; read-out: inhibition (10 μM),-0.2%
same,inhibition at 10 µM,LATS2; [1],0%
same,inhibition at 10 µM,LATS2; read-out: inhibition (10 μM),16.1%
same,inhibition at 10 µM,CaMK2d; [1],0%
same,inhibition at 10 µM,CaMK2d; read-out: inhibition (10 μM),2.3%
same,inhibition at 10 µM,CDK6; [1],0%
same,inhibition at 10 µM,CDK6; read-out: inhibition (10 μM),10.7%
same,inhibition at 10 µM,RSK1 domain1; [1],0%
same,inhibition at 10 µM,RSK1 domain1; read-out: inhibition (10 μM),5.4%
same,inhibition at 10 µM,NEK4; [1],0%
same,inhibition at 10 µM,NEK4; read-out: inhibition (10 μM),25.8%
same,inhibition at 10 µM,ULK3; [1],0%
same,inhibition at 10 µM,ULK3; read-out: inhibition (10 μM),1.8%
same,inhibition at 10 µM,LZK; [1],0%
same,inhibition at 10 µM,LZK; read-out: inhibition (10 μM),11.3%
same,inhibition at 10 µM,CDC2; [1],0%
same,inhibition at 10 µM,CDC2; read-out: inhibition (10 μM),18.5%
same,% inhibition,"JNK1, JNK2, JNK3",0.0%
same,inhibition (10 μM),"JNK1, JNK2, JNK3",29.3%
same,inhibition at 10 µM,PHKg2; [1],0%
same,inhibition at 10 µM,PHKg2; read-out: inhibition (10 μM),-45.4%
same,inhibition at 10 µM,KHS1; [1],50 to 75%
same,inhibition at 10 µM,KHS1; read-out: inhibition (10 μM),72.7%
same,% inhibition,"CDK11, CDK8",0.0%
same,inhibition (10 μM),"CDK11, CDK8",31.8%
same,% inhibition,"MAST1, MAST2",0.0%
same,inhibition (10 μM),"MAST1, MAST2",−2.9%
same,inhibition at 10 µM,PIP4K2A; [1],0%
same,inhibition at 10 µM,PIP4K2A; read-out: inhibition (10 μM),-16.5%
same,inhibition at 10 µM,MAP3K3; [1],0%
same,inhibition at 10 µM,MAP3K3; read-out: inhibition (10 μM),-29.3%
same,inhibition at 10 µM,IKKb; [1],0%
same,inhibition at 10 µM,IKKb; read-out: inhibition (10 μM),-19.5%
same,inhibition at 10 µM,IRAK1; [1],50 to 75%
same,inhibition at 10 µM,IRAK1; read-out: inhibition (10 μM),65%
same,inhibition at 10 µM,MARK4; [1],0%
same,inhibition at 10 µM,MARK4; read-out: inhibition (10 μM),22.2%
same,inhibition at 10 µM,p38a,0%
same,inhibition at 10 µM,CLK2; [1],50 to 75%
same,inhibition at 10 µM,CLK2; read-out:,65.3%
same,inhibition at 10 µM,AGK; [1],0%
same,inhibition at 10 µM,AGK; read-out: inhibition (10 μM),-12.1%
same,inhibition at 10 µM,Erk2; [1],0%
same,inhibition at 10 µM,Erk2; read-out: inhibition (10 μM),31.8%
same,inhibition at 10 µM,CHK2; [1],0%
same,inhibition at 10 µM,CHK2; read-out: inhibition (10 μM),14.1%
same,pIC50,STK4 (MST1),> 7.40
same,pIC50,STK24 (MST3),6.70 to 7.40
